# Measurements: ChEMBL document CHEMBL1201862, “PubChem BioAssay data set” (2004)
#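 Results reflect a 48-hour exposure of cells in 96-well plates to compound at five concentrations. GI50 = concentration required for 50% inhibition of growth.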 The source made the active and inactive calls. Rule as the data show it: active = GI50 up to about 1.1 µM and inactive = higher.
# How the values were obtained:
# Assay in all cases: NCI-60 cell line screen, 48 h
# ACHN = system: ACHN
# BT-549 = system: BT-549
# CCRF-CEM = system: CCRF-CEM
# COLO 205 = system: COLO 205
# EKVX = system: EKVX
# HCT-116 = system: HCT-116
# HL-60 = system: HL-60
# HOP-62 = system: HOP-62
# HT-29 = system: HT-29
# MCF7 = system: MCF7
# MDA-MB-231 = system: MDA-MB-231
# Malme-3M = system: Malme-3M
# NCI-H460 = system: NCI-H460
# OVCAR-4 = system: OVCAR-4
# PC-3 = system: PC-3
# SF-268 = system: SF-268
# SW-620 = system: SW-620
# U-251 = system: U-251
# UACC-62 = system: UACC-62
Structure (SMILES),GI50 (ACHN),GI50 (BT-549),GI50 (CCRF-CEM),GI50 (COLO 205),GI50 (EKVX),GI50 (HCT-116),GI50 (HL-60),GI50 (HOP-62),GI50 (HT-29),GI50 (MCF7),GI50 (MDA-MB-231),GI50 (Malme-3M),GI50 (NCI-H460),GI50 (OVCAR-4),GI50 (PC-3),GI50 (SF-268),GI50 (SW-620),GI50 (U-251),GI50 (UACC-62)
C/C(=N\Nc1nc2ccccc2[nH]1)c1cnccn1,0.231 µM (active),6.04 µM (inactive),0.31 µM (active),0.415 µM (active),0.491 µM (active),0.379 µM (active),0.0589 µM (active),0.619 µM (active),0.394 µM (active),0.542 µM (active),2.88 µM (inactive),0.791 µM (active),0.394 µM (active),0.617 µM (active),3.92 µM (inactive),0.53 µM (active),0.4 µM (active),0.628 µM (active),0.652 µM (active)
OCCNC1c2cc(Cl)ccc2-c2c(Cl)cc(Cl)cc21 (centres undefined),25.9 µM (inactive),> 100 µM (inactive),23.2 µM (inactive),54.8 µM (inactive),11.6 µM (inactive),26.5 µM (inactive),25.6 µM (inactive),41.2 µM (inactive),31.5 µM (inactive),17.2 µM (inactive),22 µM (inactive),> 100 µM (inactive),21.7 µM (inactive),32.1 µM (inactive),23.3 µM (inactive),38.5 µM (inactive),30.3 µM (inactive),26.3 µM (inactive),34 µM (inactive)
CC1=C2C(=O)NN=C2CCN1c1ccc(Br)cc1,> 100 µM (inactive),3.14 µM (inactive),2.2 µM (inactive),> 100 µM (inactive),> 100 µM (inactive),> 100 µM (inactive),41.3 µM (inactive),> 100 µM (inactive),> 100 µM (inactive),> 100 µM (inactive),> 100 µM (inactive),35.3 µM (inactive),> 100 µM (inactive),> 100 µM (inactive),> 100 µM (inactive),> 100 µM (inactive),> 100 µM (inactive),> 100 µM (inactive),> 100 µM (inactive)
O=Nc1c(-c2c(O)[nH]c3ccccc23)[nH]c2ccccc12 [INDIRUBIN-3-MONOXIME],1.94 µM (inactive),8.11 µM (inactive),4.4 µM (inactive),12.5 µM (inactive),1.9 µM (inactive),2.52 µM (inactive),2.72 µM (inactive),7.23 µM (inactive),7.14 µM (inactive),3.13 µM (inactive),3.38 µM (inactive),3.89 µM (inactive),3.53 µM (inactive),5.08 µM (inactive),3.72 µM (inactive),5.5 µM (inactive),4.79 µM (inactive),6.97 µM (inactive),2.93 µM (inactive)
Cc1cc(O)c2cc3c(O)c(O)ccc3cc2c1,1.77 µM (inactive),0.726 µM (active),1.27 µM (inactive),0.351 µM (active),2.12 µM (inactive),0.494 µM (active),1.73 µM (inactive),1.29 µM (inactive),2.54 µM (inactive),2.27 µM (inactive),1.25 µM (inactive),1.4 µM (inactive),0.524 µM (active),0.536 µM (active),0.302 µM (active),1.07 µM (active),0.53 µM (active),0.42 µM (active),1.52 µM (inactive)
CCOC(=O)C1CCCC1S(=O)(=O)c1ccc(C)cc1 (centres undefined),> 100 µM (inactive),> 100 µM (inactive),> 100 µM (inactive),> 100 µM (inactive),> 100 µM (inactive),> 100 µM (inactive),> 100 µM (inactive),> 100 µM (inactive),> 100 µM (inactive),> 100 µM (inactive),> 100 µM (inactive),> 100 µM (inactive),> 100 µM (inactive),> 100 µM (inactive),> 100 µM (inactive),> 100 µM (inactive),> 100 µM (inactive),> 100 µM (inactive),> 100 µM (inactive)
O=C(c1cccs1)N(C(=S)OCCOc1ccccc1)c1ccccc1,27.7 µM (inactive),20.8 µM (inactive),27.6 µM (inactive),24.8 µM (inactive),29.5 µM (inactive),19.4 µM (inactive),27.6 µM (inactive),28.2 µM (inactive),34 µM (inactive),20.2 µM (inactive),24.3 µM (inactive),31.3 µM (inactive),34.8 µM (inactive),29.8 µM (inactive),24.7 µM (inactive),34.1 µM (inactive),25.5 µM (inactive),21.4 µM (inactive),18.2 µM (inactive)
C=C(C)[C@@H]1CCC2=C[C@H](OC2=O)[C@@]2(C)C[C@@H]2C(=O)/C=C(/C)C(=O)[C@H]1OC(C)=O,17.3 µM (inactive),11.4 µM (inactive),5.02 µM (inactive),18.3 µM (inactive),21.2 µM (inactive),5.74 µM (inactive),58.6 µM (inactive),34.6 µM (inactive),11.1 µM (inactive),4.52 µM (inactive),36.4 µM (inactive),12.1 µM (inactive),30.1 µM (inactive),13 µM (inactive),13 µM (inactive),28.1 µM (inactive),14 µM (inactive),28.6 µM (inactive),24.2 µM (inactive)
C[N+](C)(C)CC1Cc2ccccc2C1=O (centres undefined),> 10 µM (inactive),> 10 µM (inactive),1.66 µM (inactive),2.93 µM (inactive),> 10 µM (inactive),1.72 µM (inactive),1.56 µM (inactive),> 10 µM (inactive),6.38 µM (inactive),2.07 µM (inactive),> 10 µM (inactive),2.11 µM (inactive),> 10 µM (inactive),2.72 µM (inactive),> 10 µM (inactive),> 10 µM (inactive),1.87 µM (inactive),> 10 µM (inactive),> 10 µM (inactive)
C=C1C(=O)O[C@H]2C[C@@H]1C(=O)CC(C)CCCC(C)=CCC[C@@]2(C)O (some centres undefined),> 25 µM (inactive),> 25 µM (inactive),> 25 µM (inactive),> 25 µM (inactive),> 25 µM (inactive),> 25 µM (inactive),> 25 µM (inactive),> 25 µM (inactive),> 25 µM (inactive),> 25 µM (inactive),> 25 µM (inactive),> 25 µM (inactive),> 25 µM (inactive),> 25 µM (inactive),> 25 µM (inactive),> 25 µM (inactive),> 25 µM (inactive),> 25 µM (inactive),> 25 µM (inactive)
CCOC(=O)C(=O)C(=O)NN(C)C1=NCCN1,> 100 µM (inactive),> 100 µM (inactive),> 100 µM (inactive),> 100 µM (inactive),> 100 µM (inactive),> 100 µM (inactive),> 100 µM (inactive),> 100 µM (inactive),> 100 µM (inactive),> 100 µM (inactive),> 100 µM (inactive),> 100 µM (inactive),> 100 µM (inactive),> 100 µM (inactive),> 100 µM (inactive),> 100 µM (inactive),> 100 µM (inactive),> 100 µM (inactive),> 100 µM (inactive)
